Experimental data: paper PMC3025922 (BMC Biology, 2010)
pIC50: −log10 of the molar value. Several values for one entry are separate records, joined by “and”; a condition that tells them apart may be missing. Equal entries are not always repeated. Where two headings read alike, the source gives them in different places.

Experiments:
[1] = test system: nuclear p27 in LNCaP-S14 cells; format: cell-based, human; settings: primary screening
[2] = target: PDGF receptor tyrosine kinase; settings: vendor annotation of library compound (Biomol EI-215); cited from earlier work
[3] = test system: p27 protein levels in IMR90 cells; experiment: Immunoblot quantification of p27, IMR90; format: cell-based, human
Experimental: (§1) Total cell lysate from cells treated with vehicle (DMSO) or compounds were obtained by incubating cells in lysis buffer (25 mM Tris-HCl pH 7.4, 150 mM NaCl, 0.5% Triton X-100, protease inhibitors) for 15 min at 4°C. The supernatant was collected by centrifugation and the amount of protein was determined with a Bio-Rad protein assay (Bio-Rad) using BSA as standard. Equal amounts of protein were subjected to SDS-PAGE (4%-20% gels, Invitrogen) and transferred to PVDF membranes. The membranes were blocked with TBST (50 mM Tris-HCl pH 7.5, 150 mM NaCl, 0.05% Tween-20) containing 5% non-fat dry milk or bovine serum albumin (BSA) for 1 h at room temperature, followed by incubation in primary antibodies 4°C overnight. Membranes were washed and incubated with secondary antibodies conjugated to HRP (Jackson ImmunoResearch Laboratories) for 1 h at room temperature. Signals were visualized using the ECL Western Blotting Substrate (Pierce Biotechnology, IL, USA) according to the manufacturer's instructions. Membranes were stripped using Restore™ Western Blot Stripping Buffer (Pierce Biotechnology). Films were scanned and quantification of the bands was performed using Image J software http://rsbweb.nih.gov/ij/.

[4] = test system: p27 protein levels in PC3 cells; experiment: Immunoblot quantification of p27, PC3; format: cell-based, human
Experimental: as §1

PC3 cells [5] = experiment: Cell cycle analysis by flow cytometry, PC3; format: cell-based, human
Experimental: (§2) Cells were exposed to SMIPs (40 μM) for 24 h and 48 h. Cells were trypsinized, washed with PBS and suspended in 600 μL PBS. Cells were fixed by adding 1.4 mL cold absolute ethanol and kept at -20°C for at least 12 h. After washing once with PBS, the cells were resuspended in 250 μL PBS containing 2.5 μg RNAse A and incubated for 45 min at room temperature. Staining was done by adding 40 μg/mL of propidium iodine followed by incubation for 15 min at room temperature. DNA-bound fluorescence was read at 564 to 606 nm using FACSort and FACSCanto flow cytometers (BD Biosciences) at the Flow Cytometry Facility of the Sanford-Burnham Medical Research Institute. Distribution of cells in the different cell cycle phase was determined with ModFit LT 3.2.1 or FlowJo 8.6 software. Aggregates were excluded from the analysis manually using pulse shape or identified by automated modelling in ModFit LT.

[6] = test system: p21 protein levels in LNCaP-S14 cells; experiment: Immunoblot quantification of p21, LNCaP-S14; format: cell-based, human
Experimental: as §1

[7] = test system: p21 protein levels in LNCaP cells; experiment: Immunoblot quantification of p21, LNCaP; format: cell-based, human
Experimental: as §1

LNCaP cells = experiment: Cell cycle analysis by flow cytometry, LNCaP; format: cell-based, human
Experimental: as §2

PC3 cells [8] = experiment: MTT cytotoxicity assay, PC3; settings: Homo sapiens, read-out: IC50 (MTT cytotoxicity)
Experimental: (§3) LNCaP-S14 (10,000 cells), PC3, DU145 or IMR90 cells (5000 cells) were seeded in 96-well plates and treated with increasing concentrations of the respective SMIPs for 72 h. Cell viability was assessed using the MTT cell proliferation assay (ATCC®, Middlesex, UK) according to the manufacturer's protocol. IC50 was calculated using the BioDataFit 1.02 software http://www.changbioscience.com/stat/ec50.html.

LNCaP-S14 cells [9] = experiment: Cell Death Detection ELISA (cytoplasmic histone-associated DNA fragments); format: cell-based, human
Experimental: Apoptosis was measured using the Cell Death Detection ELISA (Roche, Basel, Switzerland) following the manufacturer's instructions. Briefly, LNCaP-S14 cells (0.1 × 10^6) were seeded in 12-well plates and treated with SMIPs (40 μM) for 24 h. Cells were collected in medium, spun at 1000 rpm, and resuspended in 1 mL PBS at the specified time points (day 1 to day 3). The cell suspension was divided into two parts. The first half was used for determination of cytoplasmic histone-associated DNA fragments (ELISA), the second for protein determination to normalize the ELISA data to the amount of input protein.

[10] = test system: p27 protein levels in DU145 cells; experiment: Immunoblot quantification of p27, DU145; format: cell-based, human
Experimental: as §1

IMR90 cells = experiment: Cell cycle analysis by flow cytometry, IMR90; format: cell-based, human
Experimental: as §2

[11] = test system: SKP2 levels in LNCaP-S14 cells; format: cell-based, human
DU145 cells [12] = experiment: Cell cycle analysis by flow cytometry, DU145; format: cell-based, human
Experimental: as §2

LNCaP-S14 cells [13] = experiment: MTT cytotoxicity assay, LNCaP-S14; settings: Homo sapiens, 72 h, read-out: IC50 (MTT cytotoxicity)
Experimental: as §3

[14] = test system: p27 protein levels in HeLa cells; experiment: Immunoblot quantification of p27, HeLa; format: cell-based, human
Experimental: as §1

LNCaP-WT cells = experiment: MTT cytotoxicity assay, LNCaP-WT; settings: Homo sapiens, read-out: IC50 (MTT cytotoxicity)
Experimental: as §3

[15] = test system: p21 protein levels in DU145 cells; experiment: Immunoblot quantification of p21, DU145; format: cell-based, human
Experimental: as §1

[16] = test system: p21 protein levels in PC3 cells; experiment: Immunoblot quantification of p21, PC3; format: cell-based, human
Experimental: as §1

LNCaP-S14 cells [17] = experiment: Cell cycle analysis by flow cytometry, LNCaP-S14; format: cell-based, human
Experimental: as §2

[18] = test system: p27 protein levels in LNCaP-S14 cells; experiment: Immunoblot quantification of p27, LNCaP-S14; format: cell-based, human
Experimental: as §1

DU145 cells [19] = experiment: MTT cytotoxicity assay, DU145; settings: Homo sapiens, read-out: IC50 (MTT cytotoxicity)
Experimental: as §3

LNCaP-S14 cells [20] = experiment: Cell cycle distribution in LNCaP-S14 transfected with siRNAs for p27 and p21; format: cell-based, human
Experimental: as §2
LNCaP-S14 cells were seeded in 6 cm dishes or six-well-plates coated with poly-lysine the day before transfection. 10-20 nM of siRNA was transfected using DharmaFECT 3 (Thermo Scientific) according to the manufacturer's instructions. Briefly, siRNAs were dissolved in siRNA suspension buffer (Quiagen) at 20 μM, heated to 90°C for 1 min and incubated at 37°C for 1 h. siRNAs were added to the DharmaFECT 3 reagent diluted in Optimem media (1:100) and incubated for 20 min at room temperature. The mix was added to the cells for 24 h. Treatment with SMIPs (40 μM) or vehicle was carried on for another 24 h. Cells were obtained for FACS or lysed for immunoblotting analysis as described above. Untransfected cells as well as cells transfected with non-specific siRNA were used as controls. Silencer® Negative Control siRNA No.1 from Ambion (Applied Biosciences, CA, USA) was used as non-specific control siRNA. siRNA target sequences for p27 and p21 synthesized by IDT (Integrated DNA Technologies Inc, Iowa, USA) were as follows; p27 siRNA: […], and p21 siRNA: […] [56].

[21] = test system: p21 protein levels in IMR90 cells; experiment: Immunoblot quantification of p21, IMR90; format: cell-based, human
Experimental: as §1

[22] = test system: p21 protein levels in HeLa cells; experiment: Immunoblot quantification of p21, HeLa; format: cell-based, human
Experimental: as §1

[23] = test system: p27 protein levels in LNCaP cells; experiment: Immunoblot quantification of p27, LNCaP; format: cell-based, human
Experimental: as §1

[24] = test system: p27 stability in LNCaP-S14 cells; experiment: Protein half-life by cycloheximide chase; format: cell-based, human; settings: human
Experimental: LNCaP-S14 cells were treated with SMIPs (40 μM) for 18 h followed by the addition of 100 μg/mL cycloheximide (CHX). Cell extracts were obtained as described above at different times after CHX addition. Protein lysate was subjected to SDS-PAGE and immunoblotting for p27, p21 and SKP2. Tubulin was used as loading control. Protein half-lives were calculated using a web based calculator http://www.1728.com/halflife.htm.

## CC(C)(C)c1cc(C=C(C#N)C#N)cc(C(C)(C)C)c1O [1362L21]
[1]; nuclear p27 in LNCaP-S14 cells
  Z score (aver): 6.21
[1]; S = strong, M = medium, W = weak by Z score
  Clasf: S (strong (Z score > 5))
[2]
  pIC50: 5.92

## CCCCc1ccc(NC(C)=O)c(C)c1 [SMIP004]
[3]
  p27 protein level (immunoblot, DMSO = 1.0): 1.2 ± 0.3
[4]
  p27 protein level (immunoblot, DMSO = 1.0): 1.1 ± 0.3
PC3 cells [5]
  Cell cycle distribution G1: 58.5 and 65.8
  Cell cycle distribution G2: 25.7 and 24.3
  Cell cycle distribution S: 14.3 and 8.5
[6]
  p21 protein level (immunoblot, DMSO = 1.0): 2.8 ± 0.7
[7]
  p21 protein level (immunoblot, DMSO = 1.0): 2.7 ± 0.1
LNCaP cells
  Cell cycle distribution G1: 81.7 and 87.3
  Cell cycle distribution G2: 9.8 and 6.6
PC3 cells [8]; PC-3, 72 h
  pIC50: < 4.10
PC3 cells [8]; PC-3, 96 h
  pIC50: < 4.10
LNCaP-S14 cells [9]
  increase in the amount of mono and oligonucleosomes: three- to fivefold
[10]
  p27 protein level (immunoblot, DMSO = 1.0): 1.3 ± 0.1
IMR90 cells
  Cell cycle distribution G1: 68.6 and 77.6
  Cell cycle distribution G2: 13.2 and 10.9
  Cell cycle distribution S: 18.2 and 11.5
[11]
  SKP2 levels (endogenous and exogenous) by immunoblotting: decrease
DU145 cells [12]
  Cell cycle distribution G1: 75.7 and 79.7
  Cell cycle distribution G2: 8.0 and 10.4
  Cell cycle distribution S: 14.1 and 9.0
LNCaP-S14 cells [13]
  pIC50: 5.96
[14]
  p27 protein level (immunoblot, DMSO = 1.0): 1.1 ± 0.2
LNCaP-WT cells; 72 h
  pIC50: 4.40
LNCaP-WT cells; 96 h
  pIC50: 5.62
[15]
  p21 protein level (immunoblot, DMSO = 1.0): 1.7 ± 0.5
[16]
  p21 protein level (immunoblot, DMSO = 1.0): 1.7 ± 0.9
LNCaP-S14 cells [17]
  Cell cycle distribution G1: 72.3 and 75.8
  Cell cycle distribution G2: 7.1 and 6.4
  Cell cycle distribution S: 19.1 and 14.7
[18]
  p27 accumulation by immunoblotting: ~ threefold
  p27 protein level (immunoblot, DMSO = 1.0): 2.4 ± 0.7
DU145 cells [19]; DU-145, 72 h
  pIC50: < 4.10
DU145 cells [19]; DU-145, 96 h
  pIC50: < 4.10
LNCaP-S14 cells [20]
  % G1: 66.92% and 62.86% and 69.79% and 66.56%
  % G2: 13.34% and 17.13% and 13.32% and 15.94%
  % S: 19.75% and 20.02% and 16.90% and 17.50%
[21]
  p21 protein level (immunoblot, DMSO = 1.0): 1.1 ± 0.0
[22]
  p21 protein level (immunoblot, DMSO = 1.0): 1.1 ± 0.1
[23]
  p27 protein level (immunoblot, DMSO = 1.0): 2.1 ± 1.1
[24]
  p27 half-life: > 6 h
